From patent US20150118179A1, “BIOCIDAL COMPOUNDS AND METHODS FOR USING SAME” (UNIVERSITY OF MANITOBA, priority 2012, published 2015)

How the values were obtained:
MRSA (#70527) = assay: Biocidal activity in bacterial suspension (Example 17); format: cell-based, Staphylococcus aureus; conditions: 15 ppm [Cl+]
Experimental: (§1) In the model study we investigated the bactericidal performance of small molecules 2 and 43 against three strains for each bacterium at the concentration of 15 ppm.
(§2) Tryptone Soya Agar (TSA) was used for bacterial culture. After sub-cultured from stocks, bacteria were allowed to grow at 37° C. for 18-20 hours to obtain logarithmic-phase cultures. Biocidal activity of 2 and 43 were completed as followed. To 20 mL bacterial suspension (10^6-10^7 colony forming units (CFU)/mL) in a centrifuge tube was added 30 μL it 2 or 43 solutions (0.28 M stock solution) respectively to achieve final 15 ppm [Cl^+]). Timing of the exposure to the disinfectant was started immediately with the addition of the synthetic compound 2 or 43. After the contact for 5 min, 10 min, and 20 min respectively, 1.0 mL aliquots were withdrawn and added to an equal volume of 0.02 N sodium thiosulfate in PBS (0.05 M, pH 7.0). The quenched suspension was serially diluted and 100 μL of each resulting dilutions were placed onto nutrient agar plates. The same procedure was also applied to compounds 1 and 42 as controls. After being incubated at 37° C. for 24 hours, viable bacterial colonies on the plates were counted. Bacterial reduction was reported according to the following equation.
(§3) Percentage reduction of bacteria (%)=(A−B)/A×100
(§4) Where A is the number of bacteria retrieved from controls (CFU/mL), and B is the number of bacteria retrieved from 2 or 43 (CFU/mL).

MRSA (#77090) = assay: as above; format: cell-based, Staphylococcus aureus; conditions: 15 ppm [Cl+]
Experimental: as §1, §2, §3, §4

MRSA ATCC33592 = assay: as above; format: cell-based, Staphylococcus aureus; conditions: 15 ppm [Cl+]
Experimental: as §1, §2, §3, §4

P. aeruginosa 73104 = assay: Biocidal activity in bacterial suspension (Example 18); format: cell-based, Pseudomonas aeruginosa; conditions: 15 ppm [Cl+]
Experimental: Logarithmic-phase cultures of P. aeruginosa were prepared by initially suspending several colonies in cation-supplemented Mueller-Hinton broth (Oxoid, Nepean, Ontario, Canada) at a density equivalent to a 0.5 McFarland standard (1×10^8 cfu/mL). This suspension was then diluted 1:100 and 20 μL of the diluted suspension was further diluted in 60 mL of cation-supplemented Mueller-Hinton broth. Following overnight growth at 37° C., suspensions were diluted 1:[…] to get inoculums of approximately 1×10^6 or 1×10^5 cfu/mL.
(§5) Biocidal activity of synthetic compounds was completed as followed. To 20 mL of bacterial suspension (10^5 or 10^6 cfu/mL) in a centrifuge tube was added 30 μL solution of synthetic compounds (0.282 M stock solution) to achieve a final [Cl^+] of 15 ppm. Timing of the exposure to the disinfectant was started immediately with the addition of the synthetic compound. After predetermined contact time, 1.0 mL aliquots were withdrawn and added to an equal volume of 0.02 N sodium thiosulfate in PBS (0.1 M, pH 7.4). The quenched suspension was serially diluted and 100 μL of each resulting dilution was placed onto nutrient agar plates. After being incubated at 37° C. for 24 hours, the viable bacterial colonies on the plates were counted. Bacterial reduction was reported according to:
as §3
(§6) Log reduction=Log(A/B) (4)
(§7) where A is the number of bacteria in the starting inoculum (cfu/mL), and B is the number of bacteria retrieved from synthetic compounds (cfu/mL).

CA-MRSA 40065 = assay: as above; format: cell-based, Staphylococcus aureus; conditions: Table 2, 15 ppm [Cl+], inoculum 1.57-1.75 × 10^6 CFU/mL
Experimental: Logarithmic-phase cultures of MRSA were prepared using similar way except TSA broth was used instead.
as §5, §3, §6, §7

MDR-E. coli (#70094) = assay: Biocidal activity in bacterial suspension (Example 17); format: cell-based, Escherichia coli; conditions: 15 ppm [Cl+]
Experimental: as §1, §2, §3, §4

MDR-E. coli (#95882) = assay: as above; format: cell-based, Escherichia coli; conditions: 15 ppm [Cl+]
Experimental: as §1, §2, §3, §4

E. coli ATCC 25922 = assay: as above; format: cell-based, Escherichia coli; conditions: 15 ppm [Cl+]
Experimental: as §1, §2, §3, §4

[1] = Table 3, contact 60 min, inoculum 2.26 × 10^5 CFU/mL
[2] = Table 3, contact 90 min, inoculum 2.26 × 10^5 CFU/mL
[3] = Table 4, contact 3 min, inoculum 2.26-2.98 × 10^5 CFU/mL
[4] = Table 4, contact 5 min, inoculum 2.26-2.98 × 10^5 CFU/mL
[5] = Table 4, contact 10 min, inoculum 2.26-2.98 × 10^5 CFU/mL
[6] = Table 4, contact 20 min, inoculum 2.26-2.98 × 10^5 CFU/mL
[7] = Table 4, contact 30 min, inoculum 2.26-2.98 × 10^5 CFU/mL
[8] = Table 4, contact 45 min, inoculum 2.26-2.98 × 10^5 CFU/mL
[9] = Table 4, contact 60 min, inoculum 2.26-2.98 × 10^5 CFU/mL

CC1(C)C(=O)N(CCC[N+](C)(C)C)C(=O)N1Cl [Compound 2]
Bacteria reduction % (MRSA (#70527); contact 5 min): 100% | Bacteria reduction Log10 (MRSA (#70527); contact 5 min): 6.76 Log10 | Bacteria reduction % (MRSA (#70527); contact 10 min): 100% | Bacteria reduction Log10 (MRSA (#70527); contact 10 min): 6.76 Log10 | Bacteria reduction % (MRSA (#70527); contact 20 min): 100% | Bacteria reduction Log10 (MRSA (#70527); contact 20 min): 6.76 Log10 | Bacteria reduction % (MRSA (#77090); contact 5 min): 100% | Bacteria reduction Log10 (MRSA (#77090); contact 5 min): 6.16 Log10 | Bacteria reduction % (MRSA (#77090); contact 10 min): 100% | Bacteria reduction Log10 (MRSA (#77090); contact 10 min): 6.16 Log10 | Bacteria reduction % (MRSA (#77090); contact 20 min): 100% | Bacteria reduction Log10 (MRSA (#77090); contact 20 min): 6.16 Log10 | Bacteria reduction % (MRSA ATCC33592; contact 5 min): 100% | Bacteria reduction Log10 (MRSA ATCC33592; contact 5 min): 6.60 Log10 | Bacteria reduction % (MRSA ATCC33592; contact 10 min): 100% | Bacteria reduction Log10 (MRSA ATCC33592; contact 10 min): 6.60 Log10 | Bacteria reduction % (MRSA ATCC33592; contact 20 min): 100% | Bacteria reduction Log10 (MRSA ATCC33592; contact 20 min): 6.60 Log10 | Reduction of P. aeruginosa (P. aeruginosa 73104; 10^6 cfu/mL P. aeruginosa, within 60 min of contact): cannot bring any significant reduction | Bacteria reduction % (P. aeruginosa 73104; Table 3, contact 3 min, inoculum 2.26 × 10^5 CFU/mL): 37.6 ± 1.9% | Bacteria reduction % (P. aeruginosa 73104; Table 3, contact 5 min, inoculum 2.26 × 10^5 CFU/mL): 26.6 ± 12.5% | Bacteria reduction Log10 (P. aeruginosa 73104; Table 3, contact 10 min, inoculum 2.26 × 10^5 CFU/mL): 0.41 ± 0.02 Log10 | Bacteria reduction % (P. aeruginosa 73104; [1]): 100% | Bacteria reduction Log10 (P. aeruginosa 73104; [1]): 5.35 Log10 | Bacteria reduction % (P. aeruginosa 73104; [2]): 100% | Bacteria reduction Log10 (P. aeruginosa 73104; [2]): 5.35 Log10 | Bacteria reduction % (P. aeruginosa 73104; [3]): 37.6% | Bacteria reduction Log (P. aeruginosa 73104; [3]): 0.2 Log | Bacteria reduction % (P. aeruginosa 73104; [4]): 26.6% | Bacteria reduction Log (P. aeruginosa 73104; [4]): 0.14 Log | Bacteria reduction % (P. aeruginosa 73104; [5]): 61.5% | Bacteria reduction Log (P. aeruginosa 73104; [5]): 0.41 Log | Bacteria reduction % (P. aeruginosa 73104; [6]): 99.65% | Bacteria reduction Log (P. aeruginosa 73104; [6]): 2.46 Log | Bacteria reduction % (P. aeruginosa 73104; [7]): 99.99% | Bacteria reduction Log (P. aeruginosa 73104; [7]): 4.02 Log | Bacteria reduction % (P. aeruginosa 73104; [8]): 99.99% | Bacteria reduction Log (P. aeruginosa 73104; [8]): 4.67 Log | Bacteria reduction % (P. aeruginosa 73104; [9]): 100% | Bacteria reduction Log (P. aeruginosa 73104; [9]): 5.47 Log | Bacteria reduction % (CA-MRSA 40065; contact 3 min): 92.8% | Bacteria reduction Log10 (CA-MRSA 40065; contact 3 min): 1.14 Log10 | Bacteria reduction % (CA-MRSA 40065; contact 5 min): 93.8% | Bacteria reduction Log10 (CA-MRSA 40065; contact 5 min): 1.20 Log10 | Bacteria reduction % (CA-MRSA 40065; contact 10 min): 90.3% | Bacteria reduction Log10 (CA-MRSA 40065; contact 10 min): 1.01 Log10 | Bacteria reduction % (CA-MRSA 40065; contact 60 min): 99.6% | Bacteria reduction Log10 (CA-MRSA 40065; contact 60 min): 2.36 Log10 | Bacteria reduction % (MDR-E. coli (#70094); contact 5 min): 100% | Bacteria reduction Log10 (MDR-E. coli (#70094); contact 5 min): 6.17 Log10 | Bacteria reduction % (MDR-E. coli (#70094); contact 10 min): 100% | Bacteria reduction Log10 (MDR-E. coli (#70094); contact 10 min): 6.17 Log10 | Bacteria reduction % (MDR-E. coli (#70094); contact 20 min): 100% | Bacteria reduction Log10 (MDR-E. coli (#70094); contact 20 min): 6.17 Log10 | Bacteria reduction % (MDR-E. coli (#95882); contact 5 min): 100% | Bacteria reduction Log10 (MDR-E. coli (#95882); contact 5 min): 6.67 Log10 | Bacteria reduction % (MDR-E. coli (#95882); contact 10 min): 100% | Bacteria reduction Log10 (MDR-E. coli (#95882); contact 10 min): 6.67 Log10 | Bacteria reduction % (MDR-E. coli (#95882); contact 20 min): 100% | Bacteria reduction Log10 (MDR-E. coli (#95882); contact 20 min): 6.67 Log10 | Bacteria reduction Log10 (E. coli ATCC 25922; contact 5 min): 6.63 Log10 | Bacteria reduction % (E. coli ATCC 25922; contact 5 min, inoculum 1.46-5.87 × 10^6 CFU/mL): 100% | Bacteria reduction % (E. coli ATCC 25922; contact 10 min): 100% | Bacteria reduction Log10 (E. coli ATCC 25922; contact 10 min): 6.63 Log10 | Bacteria reduction % (E. coli ATCC 25922; contact 20 min): 100% | Bacteria reduction Log10 (E. coli ATCC 25922; contact 20 min): 6.63 Log10
